Measured values from patent US6667312B2, “Thioether substituted imidazoquinolines” (3M Innovative Properties Company, priority 2000, dated 2003).
Structures can show the parent of a compound that is named as a salt.

Columns and labels:
interferon (α) = assay: Cytokine Induction in Human Cells: interferon; format: cell-based; conditions: human PBMC, 18 to 24 hours, tested 30-0.014 μM, interferon (α) by ELISA; read-out: Lowest Effective Concentration (μM) Interferon
Text: (§1) An in vitro human blood cell system is used to assess cytokine induction. Activity is based on the measurement of interferon and tumor necrosis factor (α) (IFN and TNF, respectively) secreted into culture media as described by Testerman et. al. In “Cytokine Induction by the Immunomodulators Imiquimod and S-27609”, Journal of Leukocyte Biology, 58, 365-372 (September, 1995).
(§2) Whole blood from healthy human donors is collected by venipuncture into EDTA vacutainer tubes. Peripheral blood mononuclear cells (PBMC) are separated from whole blood by density gradient centrifugation using Histopaque®-1077. Blood is diluted 1:1 with Dulbecco's Phosphate Buffered Saline (DPBS) or Hank's Balanced Salts Solution (HBSS). The PBMC layer is collected and washed twice with DPBS or HBSS and resuspended at 4×10^6 cells/mL in RPMI complete. The PBMC suspension is added to 48 well flat bottom sterile tissue culture plates (Costar, Cambridge, Mass. or Becton Dickinson Labware, Lincoln Park, N.J.) containing an equal volume of RPMI complete media containing test compound.
(§3) The compounds are solubilized in dimethyl sulfoxide (DMSO). The DMSO concentration should not exceed a final concentration of 1% for addition to the culture wells. The compounds are generally tested at concentrations ranging from 30-0.014 μM.
(§4) The solution of test compound is added at 60 μM to the first well containing RPMI complete and serial 3 fold dilutions are made in the wells. The PBMC suspension is then added to the wells in an equal volume, bringing the test compound concentrations to the desired range (30-0.014 μM). The final concentration of PBMC suspension is 2×10^6 cells/mL. The plates are covered with sterile plastic lids, mixed gently and then incubated for 18 to 24 hours at 37° C. in a 5% carbon dioxide atmosphere.
(§5) Following incubation the plates are centrifuged for 10 minutes at 1000 rpm (˜200× g) at 4° C. The cell-free culture supernatant is removed with a sterile polypropylene pipet and transferred to sterile polypropylene tubes. Samples are maintained at −30 to −70° C. until analysis. The samples are analyzed for interferon (α) by ELISA and for tumor necrosis factor (α) by ELISA or IGEN Assay
Interferon (α) concentration is determined by ELISA using a Human Multi-Species kit from PBL Biomedical Laboratories, New Brunswick, N.J. Results are expressed in pg/mL.
(§6) The table below lists the lowest concentration found to induce interferon and the lowest concentration found to induce tumor necrosis factor for each compound.

[1] = tested on: tumor necrosis factor (α); assay: Cytokine Induction in Human Cells: tumor necrosis factor; format: cell-based; conditions: human PBMC, 18 to 24 hours, tested 30-0.014 μM, TNF by ELISA or IGEN assay; read-out: Lowest Effective Concentration (μM) Tumor Necrosis Factor
Text: as §1, §2, §3, §4, §5
Tumor necrosis factor (α) (TNF) concentration is determined using ELISA kits available from Biosource International, Camarillo, Calif. Alternately, the TNF concentration can be determined by Origen® M-Series Immunoassay and read on an IGEN M-8 analyzer from IGEN International, Gaithersburg, Md. The immunoassay uses a human TNF capture and detection antibody pair from Biosource International, Camarillo, Calif. Results are expressed in pg/mL.
as §6

Row | SMILES | minimal effective concentration (interferon (α)) | minimal effective concentration [1] | melting point
1 | CCCCc1nc2c(N)nc3ccccc3c2n1CCS(=O)(=O)c1ccc(F)cc1 [Example 58] | 1.11 µM | 1.11 µM | 
2 | CCc1nc2c(N)nc3ccccc3c2n1CCCCSc1ccc(F)cc1 [Example 51] | 0.12 µM | 1.11 µM | 
3 | CCCCc1nc2c(N)nc3ccccc3c2n1CCCCSc1ccc(F)cc1 [Example 41] | 0.37 µM | 0.37 µM | 
4 | CCSCCCCn1c(CC)nc2c(N)nc3ccccc3c21 [Example 53] | 0.04 µM | 0.37 µM | 
5 | CCc1nc2c(N)nc3ccccc3c2n1CCCCSc1ccc(Cl)cc1 [Example 49] | 0.37 µM | 1.11 µM | 
6 | Cc1nc2c(N)nc3c(c2n1CCCCS(=O)(=O)C(C)(C)C)CCCC3 [Example 78, 2-methyl-1-{4-[(1,1-dimethylethyl)sulfonyl]butyl}-6,7,8,9-tetrahydro-1H-imidazo[4,5-c]quinolin-4-amine] |  |  | 208 to 210 °C
7 | Cc1nc2c(N)nc3c(c2n1CCCCS(C)(=O)=O)CCCC3 [Example 74, 2-methyl-1-[4-(methylsulfonyl)butyl]-6,7,8,9-tetrahydro-1H-imidazo[4,5-c]quinolin-4-amine] |  |  | 213 to 216 °C
8 | CCCCc1nc2c(N)nc3ccccc3c2n1CCS(=O)(=O)c1ccccc1 [Example 57] | 1.11 µM | 1.11 µM | 
9 | CCc1nc2c(N)nc3ccccc3c2n1CCCCSc1ncccn1 [Example 72, 2-ethyl-1-[4-(pyrimidin-2-ylthio)butyl]-1H-imidazo[4,5-c]quinolin-4-amine] |  |  | 182 to 185 °C
10 | CCCCc1nc2c(N)nc3c(c2n1CCSc1ccccc1)CCCC3 [Example 2, 2-butyl-1-[2-(phenylthio)ethyl]-6,7,8,9-tetrahydro-1H-imidazo[4,5-c]quinolin-4-amine Hydrochloride] | 0.12 µM | 0.37 µM | 
11 | CCc1nc2c(N)nc3ccccc3c2n1CCCCS(=O)(=O)C1CCCC1 [Example 45] | 0.37 µM | 1.11 µM | 
12 | CCc1nc2c(N)nc3ccccc3c2n1CCCCCS(C)(=O)=O [Example 13, 2-ethyl-1-[5-(methylsulfonyl)pentyl]-1H-imidazo[4,5-c]quinolin-4-amine] | 0.12 µM | 3.33 µM | 
13 | CCc1nc2c(N)nc3ccccc3c2n1CCCCS(=O)(=O)C(C)C [Example 52] | 0.37 µM | 1.11 µM | 
14 | CCOCc1nc2c(N)nc3c(c2n1CCCCS(C)(=O)=O)CCCC3 [Example 79, 2-ethoxymethyl-1-(4-methanesulfonyl-butyl)-6,7,8,9-tetrahydro-1H-imidazo[4,5-c]quinolin-4-amine] |  |  | 170 to 171 °C
15 | CCCCc1nc2c(N)nc3ccccc3c2n1CCSCC(C)C [Example 63] | 0.04 µM | 0.04 µM | 
16 | CCCCc1nc2c(N)nc3ccccc3c2n1CCCCS(=O)(=O)CC [Example 39] | 0.04 µM | 0.04 µM | 
17 | CCCCc1nc2c(N)nc3ccccc3c2n1CCS(=O)(=O)C(C)C [Example 56] | 0.37 µM | 0.37 µM | 
18 | CCCCS(=O)(=O)CCCCn1c(CC)nc2c(N)nc3ccccc3c21 [Example 50] | 0.37 µM | 1.11 µM | 
19 | CCc1nc2c(N)nc3ccccc3c2n1CCCCS(=O)(=O)CC [Example 54] | 0.37 µM | 1.11 µM | 
20 | CCCCc1nc2c(N)nc3ccccc3c2n1CCS(=O)(=O)CC(C)C [Example 64] | 0.12 µM | 0.12 µM | 

Row | SMILES | minimal effective concentration (interferon (α)) | minimal effective concentration [1] | melting point
21 | CCCCc1nc2c(N)nc3ccccc3c2n1CCSCC [Example 65] | 0.01 µM | 0.04 µM | 
22 | CCCCc1nc2c(N)nc3ccccc3c2n1CCS(=O)(=O)CC [Example 66] | 0.12 µM | 0.12 µM | 
23 | CCCCc1nc2c(N)nc3ccccc3c2n1CCCCCS(C)(=O)=O [Example 11, 2-butyl-1-[5-(methylsulfonyl)pentyl]-1H-imidazo[4,5-c]quinolin-4-amine] | 0.01 µM | 0.12 µM | 
24 | Cc1nc2c(N)nc3c(c2n1CCCCS(=O)(=O)C(C)C)CCCC3 [Example 76, 2-methyl-1-{4-[(1-methylethyl)sulfonyl]butyl}-6,7,8,9-tetrahydro-1H-imidazo[4,5-c]quinolin-4-amine] |  |  | 177 to 178 °C
25 | CCCCc1nc2c(N)nc3c(c2n1CCSc1ccccc1)CCCC3 (as salt: hydrochloride) [Example 2, 2-butyl-1-[2-(phenylthio)ethyl]-6,7,8,9-tetrahydro-1H-imidazo[4,5-c]quinolin-4-amine Hydrochloride] |  |  | 237 to 238 °C
26 | CCc1nc2c(N)nc3ccccc3c2n1CCCCSC(C)C [Example 43] | 0.014 µM | 0.37 µM | 
27 | CCCCc1nc2c(N)nc3ccccc3c2n1CCCCS(=O)(=O)c1ccc(F)cc1 [Example 42] | 0.12 µM | 0.12 µM | 
28 | CCCCSCCCCn1c(CC)nc2c(N)nc3ccccc3c21 [Example 48] | 0.014 µM | 0.12 µM | 
29 | CCCc1nc2c(N)nc3ccccc3c2n1CCCCS(C)(=O)=O [Example 30, 1-[4-(methylsulfonyl)butyl]-2-propyl-1H-imidazo[4,5-c]quinolin-4-amine] | 0.37 µM | 3.33 µM | 
30 | Cc1nc2c(N)nc3c(c2n1CCCCCS(C)(=O)=O)CCCC3 [Example 75, 2-methyl-1-[5-(methylsulfonyl)pentyl]-6,7,8,9-tetrahydro-1H-imidazo[4,5-c]quinolin-4-amine] |  |  | 172 to 174 °C
31 | CCc1nc2c(N)nc3ccccc3c2n1CCCCS(=O)(=O)C1CCCCC1 [Example 55] | 0.12 µM | 1.11 µM | 
32 | CCc1nc2c(N)nc3ccccc3c2n1CCCCSC1CCCCC1 [Example 47] | 0.37 µM | 3.33 µM | 
33 | CCCCc1nc2c(N)nc3ccccc3c2n1CCSC(C)(C)C [Example 59] | 0.01 µM | 0.04 µM | 
34 | CCCCc1nc2c(N)nc3ccccc3c2n1CCSCCC [Example 61] | 0.04 µM | 0.12 µM | 
35 | CCCCc1nc2c(N)nc3ccccc3c2n1CCS(=O)(=O)C(C)(C)C [Example 60] | 0.37 µM | 0.37 µM | 
36 | CCCCc1nc2c(N)nc3ccccc3c2n1CCCCSC(C)(C)C [Example 40] | 0.01 µM | 0.01 µM | 
37 | CCc1nc2c(N)nc3ccccc3c2n1CCCCSc1cc(Cl)cc(Cl)c1 [Example 44] | 1.11 µM | 10 µM | 
38 | CCCCc1nc2c(N)nc3ccccc3c2n1CCS(=O)(=O)CCC [Example 62] | 0.12 µM | 0.37 µM | 
39 | CCc1nc2c(N)nc3ccccc3c2n1CCCCS(=O)(=O)c1cc(Cl)cc(Cl)c1 [Example 46] | 0.12 µM | 0.37 µM | 
40 | Cc1nc2c(N)nc3c(c2n1CCCCS(=O)(=O)c1ccc(F)cc1)CCCC3 [Example 77, 2-methyl-1-{4-[(4-fluorophenyl)sulfonyl]butyl}-6,7,8,9-tetrahydro-1H-imidazo[4,5-c]quinolin-4-amine] |  |  | 159 to 162 °C
